Test results published in the supplement of paper PMC10307832.

What was measured:
Experiment in all cases: relative viability (nuclei count vs DMSO), 5 days (fraction); higher = more cells survive
Nelarabine + Luminespib = compound: COc1nc(N)nc2c1ncn2[C@@H]1O[C@H](CO)[C@@H](O)[C@@H]1O [Nelarabine] + CCNC(=O)c1noc(-c2cc(C(C)C)c(O)cc2O)c1-c1ccc(CN2CCOCC2)cc1 [Luminespib] (partner 0.01 µM)
Method in brief: (§1)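 Relative viability was taken as the ratio of nuclei in treated wells to nuclei in vehicle wells. Lung cancer cell lines in 1536-well plates received compounds by pin tool one day after seeding, either one drug alone or a fixed anchor-drug dose plus five library-drug doses (not always all listed) in √10 steps. Nuclei were counted on 4× images after 5 days of treatment, and values are medians of duplicate plates.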

Nelarabine + Dasatinib = compound: COc1nc(N)nc2c1ncn2[C@@H]1O[C@H](CO)[C@@H](O)[C@@H]1O [Nelarabine] + Cc1nc(Nc2ncc(C(=O)Nc3c(C)cccc3Cl)s2)cc(N2CCN(CCO)CC2)n1 [Dasatinib] (partner 0.075 µM)
Method in brief: as §1

Adavosertib + Decitabine = compound: C=CCn1c(=O)c2cnc(Nc3ccc(N4CCN(C)CC4)cc3)nc2n1-c1cccc(C(C)(C)O)n1 [Adavosertib] + Nc1ncn([C@H]2C[C@H](O)[C@@H](CO)O2)c(=O)n1 [Decitabine] (partner 2 µM)
Method in brief: as §1

Adavosertib + Bortezomib = compound: C=CCn1c(=O)c2cnc(Nc3ccc(N4CCN(C)CC4)cc3)nc2n1-c1cccc(C(C)(C)O)n1 [Adavosertib] + CC(C)C[C@H](NC(=O)[C@H](Cc1ccccc1)NC(=O)c1cnccn1)B(O)O [Bortezomib] (partner 0.002 µM)
Method in brief: as §1

Cell Line	relative viability (Nelarabine + Luminespib; first compound 0.01 µM)	relative viability (Nelarabine + Luminespib; first compound 0.03162 µM)	relative viability (Nelarabine + Luminespib; first compound 0.1 µM)	relative viability (Nelarabine + Luminespib; first compound 0.3162 µM)	relative viability (Nelarabine + Luminespib; first compound 1 µM)	relative viability (Nelarabine + Dasatinib; first compound 0.01 µM)	relative viability (Nelarabine + Dasatinib; first compound 0.03162 µM)	relative viability (Nelarabine + Dasatinib; first compound 0.1 µM)	relative viability (Nelarabine + Dasatinib; first compound 0.3162 µM)	relative viability (Nelarabine + Dasatinib; first compound 1 µM)	relative viability (Adavosertib + Decitabine; first compound 0.01 µM)	relative viability (Adavosertib + Decitabine; first compound 0.03162 µM)	relative viability (Adavosertib + Decitabine; first compound 0.1 µM)	relative viability (Adavosertib + Decitabine; first compound 0.3162 µM)	relative viability (Adavosertib + Bortezomib; first compound 0.01 µM)	relative viability (Adavosertib + Bortezomib; first compound 0.03162 µM)	relative viability (Adavosertib + Bortezomib; first compound 0.1 µM)	relative viability (Adavosertib + Bortezomib; first compound 0.3162 µM)
NCI-H520	0.252	0.249	0.184	0.27	0.218	0.245	0.22	0.2	0.214	0.207	0.488	0.525	0.555	0.473	0.708	0.803	0.553	0.535
HCC-44	1.33	1.34	0.965	1.1	1.24						0.935	0.935	0.975	1	0.889	0.95	0.89	1.04
NCI-H2087	0.193	0.125	0.155	0.18	0.196	1.14	0.718	0.526	0.981	1.09	0.24	0.347	0.276	0.277	0.883	0.894	1.05	0.918
CAL-12T	0.32	0.315	0.367	0.699	0.394	0.426	0.484	0.16	0.51	0.482						0.817	0.946	0.68
NCI-H1355	0.763	0.618	0.667	0.629	0.713	0.849	0.573	0.564	0.744	0.706	0.347	0.351	0.396	0.368	1.15	1.17	1.18	1.16
HARA	0.77	0.84	1	0.863	0.749	0.279	0.339	0.236	0.329	0.436	0.486	0.554	0.473	0.423	0.981	1.17	1.13	0.938
NCI-H2085	0.498	0.48	0.427	0.518	0.434	0.231	0.26	0.177	0.192	0.199	0.547	0.504	0.574	0.47	1.04	1.05	1.05	1.11
IA-LM															0.899	0.989	0.893	0.774
LCLC-103H	1.26	0.905	0.969	1.06	0.99	0.458	0.45	0.342	0.499	0.471	0.71	0.722	0.73	0.721	1.03	1.1	1.05	1.08
NCI-H2405	0.697	0.844	0.646	0.762	0.696	0.208	0.244	0.233	0.21	0.229		0.761	0.794	0.698	0.984	1.01	1.01	1.07
NCI-H1666	0.991	0.962	0.898	1	1	0.835	0.855	0.719	0.878	0.934	0.629	0.616	0.73	0.703	0.831	0.87	0.729	0.62
Calu-6															0.93	1.01	1.05	0.386
BEN	0.323	0.131	0.371	0.488	0.331	0.296	0.308	0.353	0.386	0.298	0.684	0.69	0.768	0.783	0.807	0.986	0.811	0.851
201T	1.09	1.09	1.03	1.07	1.04	0.602	0.57	0.429	0.577	0.625	0.851	0.877	0.898	0.971	1.06	1.06	1.16	1.14
NCI-H322M	0.917	0.84	0.79	0.834	0.967	0.268	0.252	0.231	0.273	0.246	0.724	0.67	0.698	0.526		1.17	1.2	0.869
NCI-H1792	0.406	0.537	0.451	0.425	0.55		0.876	0.627	0.95	0.846	0.507	0.596	0.645	0.669	0.974	0.918	0.972	0.968
NCI-H358	0.409		0.28	0.308	0.309	0.17	0.144	0.148	0.145	0.154	0.246	0.201	0.188	0.193				
